# Tested on: P. falciparum K1 strain (Thailand resistant to chloroquine)
# Assay: semiautomated microdilution assay, [3H]-hypoxanthine incorporation, K1 strain
# Format: cell-based, Plasmodium falciparum
# Details: K1 strain, 72 h incubation
# Procedure: (§1) Various OZ compounds were tested by the semiautomated microdilution assay against intraerythrocytic forms of Plasmodium falciparum derived from asynchronous stock cultures.
# (§2) Fifty percent inhibitory concentration (IC50) were estimated by Logit regression analysis.
row,Structure (SMILES),IC50 (ng/ml) K1 [ng/mL]
1,O=C(CCl)N1CCC2(CC1)OOC1(O2)C2CC3CC(C2)CC1C3 (centres unmarked) [OZ87],3.6
2,Fc1ccc(NC2CCC3(CC2)OOC2(O3)C3CC4CC(C3)CC2C4)cc1 (centres unmarked) [OZ201],2.0
3,O=C(O)c1ccc([C@H]2CC[C@]3(CC2)OOC2(O3)C3CC4CC(C3)CC2C4)cc1 (some centres unmarked) [OZ165],39
4,O=C1CC2CC(C1)CC1(C2)OOC2(O1)C1CC3CC(C1)CC2C3 (centres unmarked) [OZ13],0.40
5,c1ccc(CNC[C@H]2CC[C@]3(CC2)OO[C@]2(O3)C3CC4CC(C3)CC2C4)nc1 [OZ292],0.19
6,O=S(=O)(C[C@H]1CC[C@]2(CC1)OO[C@]1(O2)C2CC3CC(C2)CC1C3)c1ncccn1 [OZ299],6.8

# Same assay, conditions: Plasmodium falciparum; K1 strain, 72 h incubation; read-out: IC50 (ng/ml) K1
row,Structure (SMILES),IC50 [ng/mL]
1,CCOC(=O)C1CCC2(CC1)OOC1(O2)C2CC3CC(C2)CC1C3 (centres unmarked) [OZ70],1.2

# Tested on: P. falciparum NF54 strain (sensitive to standard antimalarials)
# Assay: semiautomated microdilution assay, [3H]-hypoxanthine incorporation, NF54 strain
# Format: cell-based, Plasmodium falciparum
# Details: NF54 strain, 72 h incubation
# Procedure: as §1, §2
row,Structure (SMILES),IC50 (ng/ml) NF54 [ng/mL]
1,O=C(CCl)N1CCC2(CC1)OOC1(O2)C2CC3CC(C2)CC1C3 (centres unmarked) [OZ87],4.4
2,Fc1ccc(NC2CCC3(CC2)OOC2(O3)C3CC4CC(C3)CC2C4)cc1 (centres unmarked) [OZ201],3.1
3,O=C(O)c1ccc([C@H]2CC[C@]3(CC2)OOC2(O3)C3CC4CC(C3)CC2C4)cc1 (some centres unmarked) [OZ165],> 10
4,O=C1CC2CC(C1)CC1(C2)OOC2(O1)C1CC3CC(C1)CC2C3 (centres unmarked) [OZ13],0.50
5,c1ccc(CNC[C@H]2CC[C@]3(CC2)OO[C@]2(O3)C3CC4CC(C3)CC2C4)nc1 [OZ292],0.26
6,O=S(=O)(C[C@H]1CC[C@]2(CC1)OO[C@]1(O2)C2CC3CC(C2)CC1C3)c1ncccn1 [OZ299],6.3

# Same assay, conditions: Plasmodium falciparum; NF54 strain, 72 h incubation; read-out: IC50 (ng/ml) NF54
row,Structure (SMILES),IC50 [ng/mL]
1,CCOC(=O)C1CCC2(CC1)OOC1(O2)C2CC3CC(C2)CC1C3 (centres unmarked) [OZ70],1.1

# Tested on: ANKA strain of P. berghei
# Assay: single dose STI in vivo screen in infected mice
# Design: species or system Plasmodium berghei
# Details: percent reduction in parasitemia day 3 post-infection; single 3 mg/kg po in SSV
# Method in brief: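 Groups of 3-5 Moro SPF or NMRI mice infected with the ANKA strain of P. berghei received a single dose of trioxolane on day one post-infection. The compound was given in 3% ethanol and 7% Tween 80 or in SSV (0.5% w/v CMC, 0.5% v/v benzyl alcohol, 0.4% v/v Tween 80, 0.9% w/v sodium chloride in water). Antimalarial activity was scored as percent reduction in parasitemia on day three and as survival time versus untreated controls. Survival to day 30 counted as cure.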
row,Structure (SMILES),Activity (%) 3 mg/kg SSV po [%]
1,c1ccc(CNC[C@H]2CC[C@]3(CC2)OO[C@]2(O3)C3CC4CC(C3)CC2C4)nc1 [OZ292],46
2,O=S(=O)(C[C@H]1CC[C@]2(CC1)OO[C@]1(O2)C2CC3CC(C2)CC1C3)c1ncccn1 [OZ299],0

# Same assay, conditions: percent reduction in parasitemia day 3 post-infection; single 10 mg/kg po in 3% ethanol and 7% Tween 80; mice
row,Structure (SMILES),Activity (%) po
1,O=C(CCl)N1CCC2(CC1)OOC1(O2)C2CC3CC(C2)CC1C3 (centres unmarked) [OZ87],22%
2,Fc1ccc(NC2CCC3(CC2)OOC2(O3)C3CC4CC(C3)CC2C4)cc1 (centres unmarked) [OZ201],100/100/100%
3,CCOC(=O)C1CCC2(CC1)OOC1(O2)C2CC3CC(C2)CC1C3 (centres unmarked) [OZ70],98%
4,O=C(O)c1ccc([C@H]2CC[C@]3(CC2)OOC2(O3)C3CC4CC(C3)CC2C4)cc1 (some centres unmarked) [OZ165],18%
5,O=C1CC2CC(C1)CC1(C2)OOC2(O1)C1CC3CC(C1)CC2C3 (centres unmarked) [OZ13],56%

# Same assay, conditions: percent reduction in parasitemia day 3 post-infection; single 10 mg/kg po in SSV
row,Structure (SMILES),Activity (%) 10 mg/kg SSV po [%]
1,c1ccc(CNC[C@H]2CC[C@]3(CC2)OO[C@]2(O3)C3CC4CC(C3)CC2C4)nc1 [OZ292],74
2,O=S(=O)(C[C@H]1CC[C@]2(CC1)OO[C@]1(O2)C2CC3CC(C2)CC1C3)c1ncccn1 [OZ299],36

# Same assay, conditions: percent reduction in parasitemia day 3 post-infection; single 10 mg/kg sc in 3% ethanol and 7% Tween 80; mice
row,Structure (SMILES),Activity (%) sc
1,O=C(CCl)N1CCC2(CC1)OOC1(O2)C2CC3CC(C2)CC1C3 (centres unmarked) [OZ87],53%
2,Fc1ccc(NC2CCC3(CC2)OOC2(O3)C3CC4CC(C3)CC2C4)cc1 (centres unmarked) [OZ201],100/100/100%
3,CCOC(=O)C1CCC2(CC1)OOC1(O2)C2CC3CC(C2)CC1C3 (centres unmarked) [OZ70],94%
4,O=C(O)c1ccc([C@H]2CC[C@]3(CC2)OOC2(O3)C3CC4CC(C3)CC2C4)cc1 (some centres unmarked) [OZ165],9%
5,O=C1CC2CC(C1)CC1(C2)OOC2(O1)C1CC3CC(C1)CC2C3 (centres unmarked) [OZ13],99.7%

# Same assay, conditions: percent reduction in parasitemia day 3 post-infection; single po dose in standard suspending vehicle (SSV); mice
row,Structure (SMILES),Activity (%) SSVpo
1,Fc1ccc(NC2CCC3(CC2)OOC2(O3)C3CC4CC(C3)CC2C4)cc1 (centres unmarked) [OZ201],100/100/100%
2,O=C(O)c1ccc([C@H]2CC[C@]3(CC2)OOC2(O3)C3CC4CC(C3)CC2C4)cc1 (some centres unmarked) [OZ165],3%

# Same assay, conditions: single 10 mg/kg po in 3% ethanol and 7% Tween 80; untreated control 5.6 ± 0.3
row,Structure (SMILES),Survival (days) po
1,O=C(CCl)N1CCC2(CC1)OOC1(O2)C2CC3CC(C2)CC1C3 (centres unmarked) [OZ87],5.7 days
2,Fc1ccc(NC2CCC3(CC2)OOC2(O3)C3CC4CC(C3)CC2C4)cc1 (centres unmarked) [OZ201],13 days
3,CCOC(=O)C1CCC2(CC1)OOC1(O2)C2CC3CC(C2)CC1C3 (centres unmarked) [OZ70],7.7/NA/7.7 days
4,O=C(O)c1ccc([C@H]2CC[C@]3(CC2)OOC2(O3)C3CC4CC(C3)CC2C4)cc1 (some centres unmarked) [OZ165],6.3 days
5,O=C1CC2CC(C1)CC1(C2)OOC2(O1)C1CC3CC(C1)CC2C3 (centres unmarked) [OZ13],6.7 days

# Same assay, conditions: single 10 mg/kg po in SSV
row,Structure (SMILES),Survival (days) 10 mg/kg SSV po [days]
1,c1ccc(CNC[C@H]2CC[C@]3(CC2)OO[C@]2(O3)C3CC4CC(C3)CC2C4)nc1 [OZ292],7.0
2,O=S(=O)(C[C@H]1CC[C@]2(CC1)OO[C@]1(O2)C2CC3CC(C2)CC1C3)c1ncccn1 [OZ299],6.6

# Same assay, conditions: single 10 mg/kg sc in 3% ethanol and 7% Tween 80; untreated control 5.6 ± 0.3
row,Structure (SMILES),Survival (days) sc
1,O=C(CCl)N1CCC2(CC1)OOC1(O2)C2CC3CC(C2)CC1C3 (centres unmarked) [OZ87],6.0 days
2,Fc1ccc(NC2CCC3(CC2)OOC2(O3)C3CC4CC(C3)CC2C4)cc1 (centres unmarked) [OZ201],25 days
3,CCOC(=O)C1CCC2(CC1)OOC1(O2)C2CC3CC(C2)CC1C3 (centres unmarked) [OZ70],7.7/NA/7.7 days
4,O=C(O)c1ccc([C@H]2CC[C@]3(CC2)OOC2(O3)C3CC4CC(C3)CC2C4)cc1 (some centres unmarked) [OZ165],5.7 days
5,O=C1CC2CC(C1)CC1(C2)OOC2(O1)C1CC3CC(C1)CC2C3 (centres unmarked) [OZ13],9.7 days

# Same assay, conditions: single po dose in SSV; untreated control 5.6 ± 0.3
row,Structure (SMILES),Survival (days) SSVpo [days]
1,Fc1ccc(NC2CCC3(CC2)OOC2(O3)C3CC4CC(C3)CC2C4)cc1 (centres unmarked) [OZ201],10.3
2,O=C(O)c1ccc([C@H]2CC[C@]3(CC2)OOC2(O3)C3CC4CC(C3)CC2C4)cc1 (some centres unmarked) [OZ165],6.0

# — patent US6906205B2, “Spiro and dispiro 1,2,4-trioxolane antimalarials” (Medicines for Malaria Venture MMV, priority 2002, dated 2005)
